From patent EP0620008B1, “Use of vip, analogues and fragments thereof for the treatment of neurodegenerative diseases” (YEDA RESEARCH AND DEVELOPMENT COMPANY, LTD., priority 1993, dated 1999)
Where no end group is shown, it is not given here.

Legend:
[1] = test system: neurons treated with fragment 25-35 of β-Amyloid peptide; assay: survival of cerebral cortex neurons treated with fragment 25-35 of β-amyloid peptide; assay type: cell-based, rat; conditions: 25 µM fragment alone; 5 days
Experimental: β-amyloid peptide is known to be involved in Alzheimer's disease and is a toxic substance to neurons grown in culture (Pike et al., J. of Neurosci., 13(4), 1676-1687 (1993)). Neurons from rat cerebral cortex, prepared as described above were treated with 25 µM of β-amyloid peptide fragment comprising amino acids in positions 25 to 35 mentioned in the above publication. The β-amyloid peptide fragment was dissolved in water and preincubated at 37°C for 48 h in 10% CO2. St-Nle^17-VIP (10 µl/1 ml medium) was added to the culture plates at varying concentrations together with the β-amyloid peptide fragment. The St-Nle^17-VIP was initially dissolved in DMSO to give a concentration of 10^-3 M and all further dilutions were performed in saline. Cells were then incubated for 5 days, stained with antibodies against neuron specific enolase and living neurons were counted as described above.

untreated neurons = assay: survival of untreated cerebral cortical neurons (protection from naturally occurring death); conditions: for concentrations able to protect cells from naturally occurring death: cerebral cortical cultures of newborn rats, number of cells at 10^-12 M serves as control, Figs. 2-4
Experimental: (§1) • (a) Cerebral cortical cultures were prepared by a slight modification of the techniques described by Forsythe and Westbrook, (J. Physiol. Lond. 396:515 (1988)), in which cerebral cortex was used instead of hippocampus and newborn rats were utilized instead of E16 mice. […] Cerebral cortical cells were counted as above, however, only 40 fields per plate were counted comprising an area of 20 mm^2.
(§2) • (a) Cells were prepared as described in Example 5. […] One treatment was given at the beginning of a five day test period. Cell counts were performed on 100 fields, with a total area of 50 mm^2. Neurons were counted without knowledge of treatment.

[2] = test system: neurons treated with a VIP antagonist; assay: survival of cerebral cortical neurons treated with a VIP antagonist
Experimental: as §1, §2

GSNKGAIIGLM [fragment 25-35 of β-amyloid peptide]
number of living neurons [1]: 42 per 20 mm^2

St-H-S-D-G-I-F-T-D-S-Y-S-R-Y-R (stearyl-HSDGIFTDSYSRYR) [peptide 1]
concentrations able to protect cells from naturally occurring death (untreated neurons): above 10^-8 M

St-K-Q-M-A-V-K-K-Y-L-A-A-V-L (stearyl-KQMAVKKYLAAVL) [peptide 2]
concentrations able to protect cells from naturally occurring death (untreated neurons): above 10^-9 M

St-A-V-T-T-D-N-Y-T (stearyl-AVTTDNYT) [peptide 5]
effect on neuronal survival ([2]; in the presence (Fig. 5A) and in the absence (Fig. 5B) of the VIP antagonist): VIP agonist, stimulating neuronal survival
concentration of maximal activity (neuronal survival) ([2]; in the presence of 10^-8 M VIP antagonist, five day test period, Fig. 5A): 10^-10 M
concentration of maximal activity (neuronal survival) (untreated neurons; in absence of the VIP antagonist, five day test period, Fig. 5B): 10^-8 M
